Experimental findings from paper PMC9656811, “Structure-Based Discovery and Biological Assays of a Novel PRMT5 Inhibitor for Non-Small Cell Lung Cancer” (Molecules, 2022) are described below.

This experiment has as its target Protein arginine methyltransferase 5 (PRMT5) (Homo sapiens, UniProt O14744). Put plainly: AlphaLISA methyltransferase assay, […] concentrations, PRMT5 from BPS Bioscience (Cat. No. […]). Type of experiment: biochemical.

Each structure is given as a SMILES string. pIC50: −log10 of the molar value.

Protein arginine methyltransferase 5 (PRMT5), sequence (O14744 2-637): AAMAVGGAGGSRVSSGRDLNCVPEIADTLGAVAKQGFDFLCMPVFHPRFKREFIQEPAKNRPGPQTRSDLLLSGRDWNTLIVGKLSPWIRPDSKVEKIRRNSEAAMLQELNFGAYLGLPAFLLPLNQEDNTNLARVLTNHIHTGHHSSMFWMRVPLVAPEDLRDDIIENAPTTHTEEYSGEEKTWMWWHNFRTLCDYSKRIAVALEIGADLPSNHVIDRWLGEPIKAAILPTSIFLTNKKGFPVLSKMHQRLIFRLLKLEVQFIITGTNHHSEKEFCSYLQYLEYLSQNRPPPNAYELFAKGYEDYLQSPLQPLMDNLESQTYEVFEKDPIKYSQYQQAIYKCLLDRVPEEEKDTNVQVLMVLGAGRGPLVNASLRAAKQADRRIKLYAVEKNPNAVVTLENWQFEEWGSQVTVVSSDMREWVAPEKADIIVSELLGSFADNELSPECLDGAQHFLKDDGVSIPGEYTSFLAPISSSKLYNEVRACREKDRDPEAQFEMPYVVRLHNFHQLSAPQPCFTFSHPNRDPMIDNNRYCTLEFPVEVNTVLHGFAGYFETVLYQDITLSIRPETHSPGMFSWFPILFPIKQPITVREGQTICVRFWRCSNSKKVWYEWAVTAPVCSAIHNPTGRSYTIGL
Protein arginine methyltransferase 5 (PRMT5), sequence (Q9BQA1 whole entry partner): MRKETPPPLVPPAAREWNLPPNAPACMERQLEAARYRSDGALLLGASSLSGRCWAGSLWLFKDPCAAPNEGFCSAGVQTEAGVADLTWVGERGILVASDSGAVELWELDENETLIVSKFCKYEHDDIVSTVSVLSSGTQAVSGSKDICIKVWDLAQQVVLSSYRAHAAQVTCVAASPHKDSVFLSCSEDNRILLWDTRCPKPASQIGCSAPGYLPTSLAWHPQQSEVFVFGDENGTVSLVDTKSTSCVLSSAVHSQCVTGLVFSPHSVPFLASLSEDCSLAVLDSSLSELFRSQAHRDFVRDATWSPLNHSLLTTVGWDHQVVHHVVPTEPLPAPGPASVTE

In the case of `O=C1c2ccccc2C(=O)c2c(NCCCN(CCO)CCO)cccc21` [3039-0164], the pIC50 is 4.20.
